Assay results: the supplement of paper PMC10307832

Experiments:
Assay in all cases: relative viability (nuclei count vs DMSO), 5 days (fraction); higher = more cells survive
[1] = compound: C1=CC=C(C(=C1)C2=CC=C(C=C2)C3=CSC4=C3C(=C(C(=O)N4)C#N)O)O + CS(=O)(=O)CCNCc1ccc(-c2ccc3ncnc(Nc4ccc(OCc5cccc(F)c5)c(Cl)c4)c3c2)o1 [Lapatinib] (partner 2 µM)
Summary of the method: (§1)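 After 5 days of treatment, lung cancer cells in 1536-well plates were fixed and stained in a single step (final 0.05% Triton X-100, 1% formaldehyde, 1 ug/ml Hoechst) and their nuclei counted on 4× images. Treatment had been applied by pin tool the day after seeding as one drug alone or as a fixed anchor-drug dose with five library-drug doses (not always all listed) in √10 steps. Relative viability is the nuclei count of treated wells divided by that of vehicle wells, and values are medians of duplicate plates.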

[2] = compound: O=C(CCCCCCNC(=O)c1cnc(N(c2ccccc2)c2ccccc2)nc1)NO [Ricolinostat] + CS(=O)(=O)N1CCN(Cc2cc3nc(-c4cccc5[nH]ncc45)nc(N4CCOCC4)c3s2)CC1 [Pictilisib] (partner 1 µM)
Summary of the method: as §1

[3] = compound: C1=CC=C(C(=C1)C2=CC=C(C=C2)C3=CSC4=C3C(=C(C(=O)N4)C#N)O)O + NC(=O)Nc1cc(-c2cccc(F)c2)sc1C(=O)N[C@H]1CCCNC1 [AZD7762] (partner 0.2 µM)
Summary of the method: as §1

[4] = compound: C1=CC=C(C(=C1)C2=CC=C(C=C2)C3=CSC4=C3C(=C(C(=O)N4)C#N)O)O + CCNC(=O)c1noc(-c2cc(C(C)C)c(O)cc2O)c1-c1ccc(CN2CCOCC2)cc1 [Luminespib] (partner 0.01 µM)
Summary of the method: as §1

Row | Cell Line | relative viability ([1]; first compound 0.08 µM) | relative viability ([1]; first compound 0.253 µM) | relative viability ([1]; first compound 0.8 µM) | relative viability ([1]; first compound 2.53 µM) | relative viability ([1]; first compound 8 µM) | relative viability ([2]; first compound 0.08 µM) | relative viability ([2]; first compound 0.253 µM) | relative viability ([2]; first compound 0.8 µM) | relative viability ([2]; first compound 2.53 µM) | relative viability ([3]; first compound 0.253 µM) | relative viability ([3]; first compound 0.8 µM) | relative viability ([3]; first compound 2.53 µM) | relative viability ([3]; first compound 8 µM) | relative viability ([4]; first compound 0.08 µM) | relative viability ([4]; first compound 0.253 µM) | relative viability ([4]; first compound 0.8 µM) | relative viability ([4]; first compound 2.53 µM) | relative viability ([4]; first compound 8 µM) | relative viability ([3]; first compound 0.08 µM)
1 | HCC-366 | 1.24 | 0.948 | 1.24 | 1.01 | 1.01 | 0.133 | 0.17 | 0.151 | 0.198 | 0.342 | 0.259 | 0.281 | 0.273 | – | – | – | – | – | –
2 | IA-LM | 0.538 | 0.413 | 0.599 | 0.952 | 0.537 | 0.234 | 0.35 | 0.308 | 0.316 | – | – | – | – | – | – | – | – | – | –
3 | LCLC-103H | – | – | – | – | – | 0.456 | 0.47 | 0.583 | 0.547 | 0.731 | 0.803 | 0.728 | 0.743 | 0.87 | 0.98 | 1.06 | 0.929 | 1.06 | 0.737
4 | NCI-H441 | – | – | – | – | – | 0.42 | 0.55 | 0.426 | 0.453 | 1.17 | 1.33 | 1.57 | 1.02 | 0.344 | 0.352 | 0.269 | 0.308 | 0.344 | 1.02
5 | NCI-H520 | 0.602 | 0.876 | 1.15 | 0.859 | 0.736 | – | 0.218 | 0.272 | 0.23 | – | – | – | – | 0.261 | 0.225 | 0.218 | 0.246 | 0.21 | –
6 | NCI-H522 | – | – | – | – | – | – | – | – | – | 0.871 | 0.869 | 0.898 | 0.772 | – | 1.28 | 1.2 | 1.27 | 0.937 | 0.802
7 | NCI-H661 | 0.446 | 0.481 | 0.501 | 0.507 | 0.382 | – | 0.412 | 0.422 | 0.727 | – | – | – | – | 0.808 | 0.985 | 0.964 | 0.9 | 0.898 | –
8 | NCI-H1299 | 0.923 | 0.929 | 0.987 | 0.961 | 0.948 | 0.77 | 0.796 | 0.784 | 0.603 | – | – | – | – | – | – | – | – | – | –
9 | NCI-H1563 | 0.715 | 0.868 | 1.01 | 0.881 | 0.989 | 0.634 | 0.674 | 0.627 | 0.732 | – | – | – | – | 0.525 | 0.613 | 0.551 | 0.587 | 0.517 | –
10 | NCI-H1623 | – | – | – | – | – | – | – | – | – | – | – | – | – | 0.454 | 0.591 | 0.817 | 0.434 | 0.419 | –
11 | NCI-H1648 | – | – | – | – | – | – | – | – | – | 0.676 | 0.734 | 0.689 | 0.608 | – | – | – | – | – | –
12 | NCI-H1650 | – | 0.872 | 0.811 | 0.72 | 0.54 | 0.423 | 0.523 | 0.395 | 0.347 | – | – | – | – | 0.195 | 0.197 | 0.175 | 0.208 | 0.2 | –
13 | NCI-H1703 | 0.896 | 1.2 | 0.945 | 1.16 | 0.939 | – | 0.253 | 0.247 | 0.275 | 0.147 | 0.111 | 0.15 | 0.148 | – | – | – | – | – | 0.113
14 | NCI-H2009 | 1.04 | 0.933 | 0.795 | 0.886 | 0.724 | 0.498 | 0.829 | 0.757 | 0.85 | – | – | – | – | 0.962 | 1.02 | 1.11 | 1.03 | 1.02 | –
15 | NCI-H2023 | 0.925 | 0.94 | 0.579 | 0.729 | 0.88 | 0.162 | 0.277 | 0.183 | 0.185 | – | – | – | – | 0.59 | 0.752 | 0.767 | 0.956 | 0.643 | –
16 | NCI-H2228 | 0.701 | 1.33 | 0.814 | 0.998 | 1.1 | 0.309 | 0.407 | 0.355 | 0.24 | – | – | – | – | 0.14 | 0.163 | 0.105 | 0.135 | 0.186 | –
17 | NCI-H2342 | – | – | – | – | – | – | – | – | – | 0.536 | 0.446 | 0.474 | 0.358 | 0.742 | 0.816 | 0.788 | 0.718 | 0.68 | 0.432
18 | SK-LU-1 | 0.977 | 1.1 | 0.685 | 1.05 | 0.682 | 0.478 | 0.469 | 0.423 | 0.485 | – | – | – | – | 0.195 | 0.217 | 0.217 | 0.175 | 0.218 | –
19 | SK-MES-1 | 0.435 | 0.51 | 0.441 | 0.457 | 0.463 | 0.277 | 0.34 | 0.304 | 0.293 | – | – | – | – | 0.766 | 0.822 | 0.763 | 0.622 | 0.633 | –
20 | SW 900 | – | – | – | – | – | – | – | – | – | 0.625 | 0.607 | 0.692 | 0.563 | 0.161 | 0.174 | 0.186 | 0.135 | 0.192 | –
21 | SW 1573 | 0.991 | 1.12 | 1.21 | 1.11 | 0.862 | 0.454 | 0.504 | 0.542 | 0.475 | – | – | – | – | 0.192 | 0.105 | 0.147 | 0.219 | 0.275 | –
22 | UMC-11 | 0.745 | 0.871 | 0.941 | 1 | 0.858 | 0.645 | 0.859 | 0.723 | 0.24 | – | – | – | – | 0.764 | 1.04 | 1.03 | 1.06 | 0.839 | –
